Data on 1 molecule can be found in paper PMC3048208 (British Journal of Cancer, 2011).

Where a name gives a salt, the structure may show the parent alone.

Series [1] has as its system advanced solid tumours. As to the kind of experiment: Anti-tumour activity (RECIST 1.0). In kind it is in vivo, human. Conditions: for Period of disease stabilisation: colorectal carcinoma patient. Here is the method: For patients with measurable disease at baseline, response was assessed using the Response and Evaluation Criteria in Solid Tumours version 1.0 ([Therasse et al, 2000]).

Series [2] concerns patients with solid tumours. The arrangement: method as in Yong et al, 2008. Conditions: three times weekly, 3 out of 4 weeks; ref Yong et al, 2008; cited from earlier work.
Series [3] has as its system class I, II and IV HDACs. As to conditions: in vitro; ref Novotny-Diermayr et al, 2010; cited from earlier work.

As for `CCCCc1nc2cc(/C=C/C(=O)NO)ccc2n1CCN(CC)CC` [SB939, 3-[2-butyl-1-(2-diethylaminoethyl)-1H-benzoimidazol-5-yl]-N-hydroxyacrylami-hydrochloride], the Objective tumour responses result in series [1] (31 evaluable patients) was “No objective tumour responses”. Besides, the “Period of disease stabilisation” value in series [1] (dose level 2) is 8.1 months. For the same molecule, in series [1] (dose level 3), the “Period of disease stabilisation” value amounted to 10.8 months. For the same molecule, the “Period of disease stabilisation” value in series [1] (dose level 4) is 7.4 months. Further, the “Disease stabilisation of >6 months, no. of patients” value in series [1] (metastatic colorectal carcinoma) is listed as “Three”. Moreover, in series [1] (of the 31 evaluable), the “Best response stable disease” value came out at 32%; the “Best response stable disease, no. of patients” value was “Ten”; the Disease progression was found to be 68%; the “Disease progression, no. of patients” value is 21. In series [1] (patients with SD), the “Median duration of disease control” value was determined as 5.7 months and the “Range of duration of disease control” value is 1.8–10.8 months. The RPTD in series [2] is on record as 60 mg. In addition, the “Selectivity for class I, II and IV HDACs compared with class III HDACs” value in series [3] is on record as over 1000 fold.
